This note sets out measurements from PMC11509018, “Evaluation of the Role of Tanshinone I in an In Vitro System of Charcot-Marie-Tooth Disease Type 2N” (International Journal of Molecular Sciences, 2024).

Positions count from the first letter of the chain named.

Test [1] has as its target T1, AlaRS^G102R (Homo sapiens, UniProt P49588, G102R).
T1 construct: made in house; host or cells: E. coli BL21 (DE3), pET-21a
T1 sequence (P49588 1-968 G102R): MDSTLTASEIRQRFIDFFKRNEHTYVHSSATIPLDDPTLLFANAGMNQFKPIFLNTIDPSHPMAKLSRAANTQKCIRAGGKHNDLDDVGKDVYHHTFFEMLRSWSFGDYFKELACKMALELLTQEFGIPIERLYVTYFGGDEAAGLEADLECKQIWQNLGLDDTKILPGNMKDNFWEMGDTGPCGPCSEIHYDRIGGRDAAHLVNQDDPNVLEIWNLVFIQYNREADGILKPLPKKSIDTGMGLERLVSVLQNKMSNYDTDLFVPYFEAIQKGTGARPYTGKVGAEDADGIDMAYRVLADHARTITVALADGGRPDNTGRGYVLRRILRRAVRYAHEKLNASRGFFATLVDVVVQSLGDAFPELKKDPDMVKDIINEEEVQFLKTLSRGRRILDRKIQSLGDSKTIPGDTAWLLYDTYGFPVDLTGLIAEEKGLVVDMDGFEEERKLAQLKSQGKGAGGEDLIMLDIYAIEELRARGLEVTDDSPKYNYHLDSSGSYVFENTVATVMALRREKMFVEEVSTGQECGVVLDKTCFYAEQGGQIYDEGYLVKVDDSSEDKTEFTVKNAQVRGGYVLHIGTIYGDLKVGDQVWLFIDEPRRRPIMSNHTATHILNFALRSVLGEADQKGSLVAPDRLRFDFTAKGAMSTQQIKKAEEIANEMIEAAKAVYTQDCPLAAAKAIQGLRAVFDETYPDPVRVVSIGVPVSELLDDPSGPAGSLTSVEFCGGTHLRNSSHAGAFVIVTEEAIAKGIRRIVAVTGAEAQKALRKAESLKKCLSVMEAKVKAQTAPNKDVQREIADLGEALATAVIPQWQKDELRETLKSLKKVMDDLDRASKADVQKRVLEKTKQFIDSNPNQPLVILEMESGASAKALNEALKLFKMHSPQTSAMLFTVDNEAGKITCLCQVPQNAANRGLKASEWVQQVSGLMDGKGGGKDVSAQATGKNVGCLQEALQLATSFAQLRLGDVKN
Description: Biolayer interferometry (BLI). To be noted: immobilized AlaRS^G102R, mean ± SD, triplicate. The format is binding. On the procedure: (§1) Furthermore, we examined the interaction of Tanshinone I with additional AlaRS CMT mutants capable of binding to Nrp1 and causing conformational changes by BLI and proteolysis assays on additional related mutants. […] To further quantify the binding of small molecules to mutant proteins, binding experiments with AlaRS^R329H proteins and small molecules were conducted using an Octet R8 system (ForteBio, Fremont, CA, USA). Purified His-tagged AlaRS^R329H proteins (500 μg/mL) were captured on Ni-NTA biosensors (ForteBio, Fremont, CA, USA), achieving a saturation response of 4–5 nm after 300 s. The biosensors were then transferred to Octet buffer (PBS with 0.01% Tween 20) for 180 s to remove loosely bound, nonspecific proteins and to establish a stable baseline. Following this, the sensors were immersed in diluted Tanshinone I (2.5–100 μM in assay buffer) for 120 s to record the association signal, and then transferred back into Octet buffer to monitor the dissociation signal for 120 s. Reference wells containing buffer instead of Tanshinone I were included to correct for baseline shifts. Additionally, a parallel set of Ni-NTA sensors in buffer served as negative reference controls to account for nonspecific binding of the compounds to the biosensor surface. The data were processed using a double reference subtraction protocol to eliminate nonspecific signals, background noise, and signal drifts caused by biosensor variability. All assays were performed in 96-well black plates with a total volume of 200 μL per well at 30 °C. Data analysis, including correction and curve fitting, was carried out using Octet® Analysis Studio 12.2.2.26. The experiment was repeated three times.

Test [2] deals with T2, AlaRS^R326W (Homo sapiens, UniProt P49588, R326W).
T2 construct: made in house; host or cells: E. coli BL21 (DE3), pET-21a
T2 sequence (P49588 1-968 R326W): T1 sequence (P49588 1-968 G102R) with R102G, R326W
Description: Biolayer interferometry (BLI). The format is binding. To be noted: immobilized AlaRS^R326W, mean ± SD, triplicate. How it is done: as §1

The Kd is the concentration at which binding is half-saturated. Read a low Kd as tighter binding. In the case of `Cc1coc2c1C(=O)C(=O)c1c-2ccc2c(C)cccc12` [Tanshinone I], the Kd was found to be 31.2 ± 11.9 µM in test [1] and 39.6 ± 6.4 µM in test [2].
